Experiments:
[1] = target: T1, guanylyl cyclase type A (GC-A) (Rattus norvegicus, UniProt P18910); experiment: ANP-induced cyclic GMP accumulation in RFL-6 fibroblast cells; conditions: RFL-6 cells, 1 μM ANP, 50 μM compound
T1 sequence (P18910 29-1057): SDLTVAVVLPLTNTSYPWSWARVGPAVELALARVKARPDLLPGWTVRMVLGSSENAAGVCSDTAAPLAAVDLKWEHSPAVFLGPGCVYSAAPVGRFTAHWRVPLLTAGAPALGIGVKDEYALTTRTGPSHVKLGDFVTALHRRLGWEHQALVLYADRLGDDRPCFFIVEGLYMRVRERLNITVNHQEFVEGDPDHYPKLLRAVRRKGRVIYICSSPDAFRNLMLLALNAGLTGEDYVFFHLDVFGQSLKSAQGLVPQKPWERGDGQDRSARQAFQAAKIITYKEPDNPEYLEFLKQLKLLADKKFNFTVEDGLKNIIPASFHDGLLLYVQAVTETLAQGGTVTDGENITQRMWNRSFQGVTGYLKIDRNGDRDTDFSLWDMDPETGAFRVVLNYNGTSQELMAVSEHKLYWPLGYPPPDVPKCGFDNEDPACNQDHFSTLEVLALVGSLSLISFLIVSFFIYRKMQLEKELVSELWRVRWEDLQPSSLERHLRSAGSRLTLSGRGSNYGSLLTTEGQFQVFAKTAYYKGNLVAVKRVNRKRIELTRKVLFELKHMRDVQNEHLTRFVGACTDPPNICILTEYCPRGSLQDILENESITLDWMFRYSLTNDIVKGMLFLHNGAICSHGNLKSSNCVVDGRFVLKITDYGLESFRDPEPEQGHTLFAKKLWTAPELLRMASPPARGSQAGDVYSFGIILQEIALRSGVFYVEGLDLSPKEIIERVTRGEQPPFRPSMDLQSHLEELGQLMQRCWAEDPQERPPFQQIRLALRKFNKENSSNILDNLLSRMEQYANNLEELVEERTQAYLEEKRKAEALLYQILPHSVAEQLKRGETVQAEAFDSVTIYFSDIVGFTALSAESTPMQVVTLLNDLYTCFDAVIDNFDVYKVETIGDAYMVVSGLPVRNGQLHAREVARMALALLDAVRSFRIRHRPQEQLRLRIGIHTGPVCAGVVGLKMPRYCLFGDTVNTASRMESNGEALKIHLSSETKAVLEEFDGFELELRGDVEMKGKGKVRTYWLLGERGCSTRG

[2] = target: T2, guanylyl cyclase type B (GC-B) (Rattus norvegicus, UniProt P16067); experiment: CNP-induced cyclic GMP accumulation in RFL-6 fibroblast cells; conditions: RFL-6 cells, 1 μM CNP, 50 μM compound
T2 sequence (P16067 17-1047): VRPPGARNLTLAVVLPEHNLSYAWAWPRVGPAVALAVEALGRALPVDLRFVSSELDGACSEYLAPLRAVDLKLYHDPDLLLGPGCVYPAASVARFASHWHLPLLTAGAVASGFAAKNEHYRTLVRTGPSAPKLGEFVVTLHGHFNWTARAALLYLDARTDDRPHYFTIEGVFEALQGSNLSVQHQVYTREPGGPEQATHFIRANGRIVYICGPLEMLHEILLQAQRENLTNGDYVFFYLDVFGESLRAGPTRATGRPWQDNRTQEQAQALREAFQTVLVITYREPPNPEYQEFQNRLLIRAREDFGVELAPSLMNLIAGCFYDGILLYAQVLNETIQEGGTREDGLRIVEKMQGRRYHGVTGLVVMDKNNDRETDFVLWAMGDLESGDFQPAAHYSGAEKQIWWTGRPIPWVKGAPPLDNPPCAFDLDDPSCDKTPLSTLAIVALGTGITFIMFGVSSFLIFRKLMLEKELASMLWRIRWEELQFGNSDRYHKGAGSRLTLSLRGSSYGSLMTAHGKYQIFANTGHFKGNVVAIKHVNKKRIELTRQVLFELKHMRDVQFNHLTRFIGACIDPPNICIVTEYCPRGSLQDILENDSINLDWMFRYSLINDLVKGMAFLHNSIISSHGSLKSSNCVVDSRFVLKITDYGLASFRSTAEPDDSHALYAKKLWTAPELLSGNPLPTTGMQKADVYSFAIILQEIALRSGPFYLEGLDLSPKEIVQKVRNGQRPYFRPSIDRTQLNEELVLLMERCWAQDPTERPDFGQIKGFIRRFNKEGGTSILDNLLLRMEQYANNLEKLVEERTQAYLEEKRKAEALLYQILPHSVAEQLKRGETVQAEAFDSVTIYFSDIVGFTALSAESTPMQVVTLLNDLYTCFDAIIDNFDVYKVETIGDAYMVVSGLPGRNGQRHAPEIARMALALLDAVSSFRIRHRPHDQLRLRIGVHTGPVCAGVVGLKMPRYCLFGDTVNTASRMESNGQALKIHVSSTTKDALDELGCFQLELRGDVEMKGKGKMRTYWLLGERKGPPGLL

`Cn1c2c(c(=O)n(C)c1=O)C(c1cccc(Br)c1)C1=C(N2)c2ccccc2C1=O` (centres unmarked) [compound IIb] was tested, and the “inhibition of cyclic GMP accumulation (FIG. 6)” value [1] was “inhibition” and the “inhibition of cyclic GMP accumulation (FIG. 6)” value [2] was “inhibition”.

Source: patent US20100035867A1 (priority 2006, published 2010)
